According to patent US5700445A, “N-methyl piperazine compounds having dopamine receptor affinity” (Allelix Biopharmaceuticals, Inc., priority 1994, dated 1997):

Assays:
[1] = molecular target: T1, human D2 receptor (short isoform) (Homo sapiens, UniProt P14416); test: D2 receptor binding assay (displacement of 3H-spiperone), reported as D2/D4 selectivity; conditions: ratio D2/D4; 3H-spiperone 0.25 nM; D2 short isoform vs D4.2
T1 construct: 3H-spiperone displacement
Protocol: (§1) The potency of the test compound to reduce ^3 H-spiperone binding directly correlated to its binding affinity for the receptor.
CH4 C1 (rat pituitary) cells stably transfected with the human D2 receptor (short isoform) were grown in CO2 independent media in roller bottles (1500 cm^2) for 10 days. 100 μM ZnSO4 was added to the cells (the D2 promoter being zinc inducible). After 16 hours, fresh media was added to allow the cells to recover for 24 hours. The cells were harvested using versine and then centrifuged in a Sorval centrifuge for 10 minutes, at 5000 rpm (GS3 rotor). Pellets were quickly frozen in liquid nitrogen and stored at -80° C. until used in the binding assays. When used in the assay, cells were thawed on ice for 20 minutes. […] The receptor protein concentration was determined using the Pierce BCA assay.
(§2) The tubes were vortexed and incubated at room temperature for 90 minutes. The binding reaction was stopped by filtering using a Brandell Cell Harvester. The samples were filtered under vacuum over glass fibre filters (Whatman GF/B) presoaked for 2 hours in 0.3% polyethylenimine (PEI) in 50 mM Tris buffer (pH 7.4). The filters were then washed 3 times with 5 ml ice cold 50 mM Tris buffer (pH 7.4). Individual filter disks were put in scintillation vials (Biovials, Bechman). Ready Protein Plus liquid scintillant (5 ml, Beckman) was added and the vials counted by liquid scintillation spectrophotometry (Beckman LSC 6500) after equilibrating for three hours at room temperature to determine total binding (BT).
This assay employed the same procedures as the non-specific binding assay for D4 with the exception that 2 μM (final conc.) of (-) sulpiride (Research Chemicals Inc.) was used in place of dopamine.
(§3) The tubes were vortexed and incubated at room temperature for 90 minutes at which time the binding reaction was stopped by filtering. The filters were washed and counted using the same procedure as in the total binding assay described above to give the displacement binding value (BD).
(§4) IC50 was determined from an inhibition response curve, logit-log plot of %B/B0 vs concentration of test compound. Ki was calculated by the Cheng and Prustoff transformation: […]
where [L] is the concentration of ^3 H-spiperone used in the assay and KD is the dissociation constant of ^3 H-spiperone determined independently under the same binding conditions.

human D4 receptors [2] = molecular target: T2, human D4 receptors (Homo sapiens, UniProt P21917); test: Functional antagonist assay: reversal of dopamine inhibition of forskolin-stimulated adenyl cyclase (cAMP) in CHO Pro 5 cells; type: cell-based; conditions: dopamine and forskolin both 10 μM, read-out: % REVERSAL OF DOPAMINE EFFECT
T2 construct: expressed in transfected cells; host or cells: CHO Pro 5 cells, stably expressing
T2 sequence (P21917 1-419): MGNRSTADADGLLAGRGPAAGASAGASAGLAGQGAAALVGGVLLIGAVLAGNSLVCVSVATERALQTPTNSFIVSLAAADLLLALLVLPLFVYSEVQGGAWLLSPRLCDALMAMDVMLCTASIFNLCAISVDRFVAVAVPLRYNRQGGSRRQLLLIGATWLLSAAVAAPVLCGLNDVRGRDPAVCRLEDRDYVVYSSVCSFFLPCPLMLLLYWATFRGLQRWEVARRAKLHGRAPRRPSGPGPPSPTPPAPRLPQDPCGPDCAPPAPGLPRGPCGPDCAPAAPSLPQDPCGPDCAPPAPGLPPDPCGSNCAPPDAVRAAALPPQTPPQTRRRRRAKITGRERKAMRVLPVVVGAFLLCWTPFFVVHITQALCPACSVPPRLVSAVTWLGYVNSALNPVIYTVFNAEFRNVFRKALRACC
Protocol: The D4 receptor responds to dopamine and other agonists by reducing adenyl cyclase mediated production of cyclic AMP. […] Forskolin was used to elevate the basal adenyl cyclase activity.
(§5) CHO Pro 5 cells stably expressing human D4 receptors were plated in 6 well plates in DMEM (Dulbecco's Modified Eagle Medium)/F12(Nutrient Mixture F12 (Ham)) media with 10% FCS (fetal calf serum) and G418 (Geneticen Disulfate), and incubated at 37° C. in a CO2 incubator. The cells were allowed to grow to about 70% confluence before use in the assay.
Basal adenyl cyclase activity was determined from wells with only SFM+IBMX media added.
The cells were then incubated at 37° C. for 30 minutes in a CO2 incubator. Following incubation the media was aspirated from each well and then washed once with 2 mL of PBS (phosphate buffered saline). […] The cells from each well were then scraped and transferred into individual Eppendorf tubes. […]
Total inhibition (I0) of forskolin-stimulated adenyl cyclase activity by dopamine was determined as the difference in concentration of cAMP in the forskolin-treated cells (Cf) and dopamine-forskolin treated cells (Cd).
Net inhibition (I) of forskolin-stimulated adenyl cyclase activity by dopamine in the presence of an antagonist was determined as the difference in concentration of cAMP in the forskolin-treated cells (Cf) and test compound, dopamine and forskolin treated cells (C).

[3] = molecular target: T3, human D4 receptor (D4.2 sub-type) (Homo sapiens, UniProt P21917, DEL265-296); test: D4 receptor binding assay (displacement of 3H-spiperone); conditions: 3H-spiperone 0.25 nM, cell membranes, Cheng and Prustoff, read-out: D4 AFFINITY Ki
T3 construct: expressed in transfected cells; host or cells: HEK 298 (human embryonic kidney) cells, stably transfected
T3 sequence (P21917 with tags, fused parts or gaps DEL265-296): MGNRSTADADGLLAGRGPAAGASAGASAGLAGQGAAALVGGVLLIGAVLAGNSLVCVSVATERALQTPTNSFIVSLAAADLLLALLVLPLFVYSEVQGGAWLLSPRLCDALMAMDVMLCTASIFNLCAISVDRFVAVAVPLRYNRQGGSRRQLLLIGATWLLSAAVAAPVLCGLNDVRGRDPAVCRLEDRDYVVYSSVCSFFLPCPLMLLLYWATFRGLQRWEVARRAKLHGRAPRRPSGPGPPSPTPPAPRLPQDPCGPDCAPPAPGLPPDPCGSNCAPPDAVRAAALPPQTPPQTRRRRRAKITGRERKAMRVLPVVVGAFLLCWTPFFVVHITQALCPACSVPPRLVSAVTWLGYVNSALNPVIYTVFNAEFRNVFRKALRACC
Protocol: as §1
The cells were then centrifuged in a Sorval centrifuge for 10 min, 5000 rpm (GS3 rotor) and the pellets quickly frozen in liquid nitrogen and stored at -80° C. until used in binding assay. When used in the assay, cells were thawed on ice for 20 min and then 10 ml of incubation buffer (50 mM Tris, 1 mM EDTA, 4 mM MgCl2, 5 mM KCl, 1.5 mM CaCl2, 120 mM NaCl, pH 7.4) was added. […] Concentration of receptor protein was determined using the Pierce BCA assay.
as §2
The tubes were vortexed and incubated at room temperature for 90 minutes at which time the binding reaction was stopped by filtering. The filters were washed and counted using the same procedure as in the total binding assay described above to give the non-specific binding value (NSB).
as §3, §4

human D4 receptors [4] = molecular target: T2, human D4 receptors; test: Functional agonist assay: decrease in forskolin-stimulated cAMP in D4 stably expressing CHO cells; type: cell-based; conditions: forskolin 10 μM
Protocol: The D4 receptor responds to dopamine and other agonists by reducing adenyl cyclase mediated production of cyclic AMP. Particular test compound 4-chloro-5H-dibenzo[b,e][1,4]diazepine was assayed for its ability to reverse dopamine inhibition of adenyl cyclase by the following procedure. Forskolin was used to elevate the basal adenyl cyclase activity.
as §5
To D4 stably expressing CHO cells prepared as previously described were added test compound and forskolin (10 μM final concentration). The cells were incubated, extracted and measured for cAMP concentration as above. Agonist activity of a test compound would result in a decrease in cAMP concentration compared to cells treated with forskolin (Cf) only.

D4 receptor = conditions: background, marketed products; read-out: D4 affinity, Ki; cited from earlier work

T1 sequence (P14416 with tags, fused parts or gaps DEL242-270): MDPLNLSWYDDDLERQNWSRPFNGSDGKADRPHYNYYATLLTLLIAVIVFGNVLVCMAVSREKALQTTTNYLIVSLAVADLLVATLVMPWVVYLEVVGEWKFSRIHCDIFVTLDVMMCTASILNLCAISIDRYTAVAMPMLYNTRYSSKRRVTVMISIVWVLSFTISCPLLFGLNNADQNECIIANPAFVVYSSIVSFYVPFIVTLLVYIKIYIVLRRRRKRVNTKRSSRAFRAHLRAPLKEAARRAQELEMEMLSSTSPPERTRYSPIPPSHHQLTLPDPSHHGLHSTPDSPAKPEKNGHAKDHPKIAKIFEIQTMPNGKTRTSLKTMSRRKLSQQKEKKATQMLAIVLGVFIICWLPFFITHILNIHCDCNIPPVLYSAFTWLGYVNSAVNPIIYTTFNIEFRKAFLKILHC

| SMILES | SELECTIVITY FOR D4, D2/D4 [1] | Ki [3] | other results |
| --- | --- | --- | --- |
| Cc1cc2c(cc1C)Nc1ccccc1C(N1CCN(C)CC1)=N2 [7,8-dimethyl-11-(4-methyl-1-piperazinyl)-5H-dibenzo[b,e][1,4]diazepine] | 10.6 |  |  |
| CN1CCN(C2=Nc3ccccc3Oc3c(C#N)cccc32)CC1 [4-cyano-11-(4-methyl-1-piperazinyl)dibenz[b,f][1,4]oxazepine] | 64.4 |  |  |
| CN1CCN(C2=Cc3cc(C#N)ccc3Sc3ccccc32)CC1 [2-cyano-10-(4-methyl-piperazinyl)-dibenzo[b,f]thiepine] | 21.4 | 4.5 nM |  |
| CN1CCN(C2=Nc3cc(Cl)ccc3Oc3ccccc32)CC1 [isoloxapine] |  |  | Ki (D4 receptor): ~20 nM |
| CN1CCN(C2=Nc3ccccc3Oc3c2cccc3[N+](=O)[O-])CC1 [4-nitro-11-(4-methyl-1-piperazinyl)dibenz[b,f][1,4]oxazepine] | 21.4 |  |  |

More lines, main results first:

| SELECTIVITY FOR D4, D2/D4 [1] | Ki [3] | SMILES | other results |
| --- | --- | --- | --- |
| 187.5 | 16.7 nM | CN1CCN(C2=Nc3ccccc3Nc3c(Cl)cccc32)CC1 [4-Chloro-11-(4-methyl-1-piperazinyl)-5H-dibenzo[b,e][1,4]diazepine] | inhibition at 1 µM (human D4 receptors [2]; 1 μM test compound): 16%; inhibition at 10 µM (human D4 receptors [2]; 10 μM test compound): 58%; dopamine agonist activity (decrease in cAMP compared to cells treated with forskolin) (human D4 receptors [4]): no dopamine agonist activity |
|  | 14.2 nM | CN1CCN(C2=Nc3ccccc3Nc3ccc(C(F)(F)F)cc32)CC1 [2-trifluoromethyl-11-(4-methyl-1-piperazinyl)-5H-dibenzo[b,e][1,4]diazepine] |  |
| 12.6 |  | CN1CCN(C2=Nc3ccccc3Nc3cccc(F)c32)CC1 [1-fluoro-11-(4-methyl-1-piperazinyl)-5H-dibenz[b,e][1,4]diazepine] |  |
| 18.8 |  | CN1CCN(C2=Nc3cc(Cl)c(Cl)cc3Nc3c(Cl)cccc32)CC1 [4,7,8-trichloro-11-(4-methyl-1-piperazinyl)-5H-dibenzo[b,e][1,4]diazepine] |  |
| 10.7 |  | CN1CCN(C2=Nc3cc(Cl)c(Cl)cc3Nc3ccc(Cl)cc32)CC1 [2,7,8-trichloro-11-(4-methyl-1-piperazinyl)-5H-dibenzo[b,e][1,4]diazepine] |  |
